From ChEMBL document CHEMBL1201862, “PubChem BioAssay data set” (2004)
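Assay format: 96-well plates, 48-hour exposure. The concentration for 50% growth inhibition is given as GI50.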 Active and inactive are the calls of the source. Cut-off read from the data, not from the text of the source: active = GI50 up to about 1.1 µM and inactive = higher.

Assays:
Assay in all cases: inhibition of tumour cell growth, NCI panel, 48 h
A549 = system: A549
CAKI-1 = system: CAKI-1
COLO 205 = system: COLO 205
EKVX = system: EKVX
HCT-116 = system: HCT-116
HOP-92 = system: HOP-92
Hs-578T = system: Hs-578T
K562 = system: K562
LOX IMVI = system: LOX IMVI
M14 = system: M14
MCF7 = system: MCF7
OVCAR-3 = system: OVCAR-3
OVCAR-5 = system: OVCAR-5
PC-3 = system: PC-3
SF-268 = system: SF-268
SF-295 = system: SF-295
SNB-19 = system: SNB-19
SNB-75 = system: SNB-75
HL-60 = system: HL-60
MOLT-4 = system: MOLT-4

Row | Compound | GI50 (A549) | GI50 (CAKI-1) | GI50 (COLO 205) | GI50 (EKVX) | GI50 (HCT-116) | GI50 (HOP-92) | GI50 (Hs-578T) | GI50 (K562) | GI50 (LOX IMVI) | GI50 (M14) | GI50 (MCF7) | GI50 (OVCAR-3) | GI50 (OVCAR-5) | GI50 (PC-3) | GI50 (SF-268) | GI50 (SF-295) | GI50 (SNB-19) | GI50 (SNB-75) | GI50 (HL-60) | GI50 (MOLT-4)
1 | COc1cccc(CSCC(=O)O)c1 | > 100 µM (inactive) | > 100 µM (inactive) | > 100 µM (inactive) | > 100 µM (inactive) | > 100 µM (inactive) | > 100 µM (inactive) | > 100 µM (inactive) | > 100 µM (inactive) | > 100 µM (inactive) | > 100 µM (inactive) | > 100 µM (inactive) | > 100 µM (inactive) | > 100 µM (inactive) | > 100 µM (inactive) | > 100 µM (inactive) | > 100 µM (inactive) | > 100 µM (inactive) | > 100 µM (inactive) | – | –
2 | O=c1[nH]nc(Cc2ccc([N+](=O)[O-])cc2)[nH]1 | > 100 µM (inactive) | > 100 µM (inactive) | > 100 µM (inactive) | 54.6 µM (inactive) | > 100 µM (inactive) | – | 75 µM (inactive) | > 100 µM (inactive) | > 100 µM (inactive) | > 100 µM (inactive) | > 100 µM (inactive) | > 100 µM (inactive) | > 100 µM (inactive) | > 100 µM (inactive) | > 100 µM (inactive) | > 100 µM (inactive) | > 100 µM (inactive) | > 100 µM (inactive) | > 100 µM (inactive) | > 100 µM (inactive)
3 | COc1ccc2c(c1OC)C(Br)CCC(Br)(Br)C2=O (stereo not drawn) | 13.6 µM (inactive) | 1.78 µM (inactive) | 3.02 µM (inactive) | 14.1 µM (inactive) | 4.9 µM (inactive) | 3.52 µM (inactive) | 18.5 µM (inactive) | 2.79 µM (inactive) | 2.93 µM (inactive) | 5.25 µM (inactive) | 9.02 µM (inactive) | 15.8 µM (inactive) | 17.5 µM (inactive) | 11.9 µM (inactive) | 14 µM (inactive) | 17.6 µM (inactive) | 15.5 µM (inactive) | – | 5.27 µM (inactive) | 1.75 µM (inactive)
4 | CC(Cc1ccc(O)cc1)NCC(O)c1ccc(O)c(O)c1 (stereo not drawn) | > 100 µM (inactive) | > 100 µM (inactive) | – | > 100 µM (inactive) | > 100 µM (inactive) | > 100 µM (inactive) | > 100 µM (inactive) | > 100 µM (inactive) | > 100 µM (inactive) | > 100 µM (inactive) | > 100 µM (inactive) | 81.7 µM (inactive) | > 100 µM (inactive) | > 100 µM (inactive) | > 100 µM (inactive) | > 100 µM (inactive) | > 100 µM (inactive) | > 100 µM (inactive) | – | 73.5 µM (inactive)
5 | O=[N+]([O-])c1cccnc1NCC1(CO)CCCC1 | 35.2 µM (inactive) | – | – | 27.8 µM (inactive) | 26 µM (inactive) | 23.4 µM (inactive) | 24.5 µM (inactive) | 18.5 µM (inactive) | 16.7 µM (inactive) | – | 42.7 µM (inactive) | 19.8 µM (inactive) | 31.6 µM (inactive) | 19.1 µM (inactive) | 32.2 µM (inactive) | 23.8 µM (inactive) | 56.4 µM (inactive) | 15.9 µM (inactive) | 22.4 µM (inactive) | 15.6 µM (inactive)
6 | Cc1nc2c(sc3nc4ccccc4n32)c(=O)[nH]1 | > 100 µM (inactive) | > 100 µM (inactive) | > 100 µM (inactive) | > 100 µM (inactive) | > 100 µM (inactive) | > 100 µM (inactive) | > 100 µM (inactive) | – | > 100 µM (inactive) | > 100 µM (inactive) | > 100 µM (inactive) | > 100 µM (inactive) | > 100 µM (inactive) | > 100 µM (inactive) | > 100 µM (inactive) | > 100 µM (inactive) | > 100 µM (inactive) | > 100 µM (inactive) | – | > 100 µM (inactive)
7 | COc1cc(/C=C2\CCC/C(=C\c3cc(OC)c(O)c(OC)c3)C2=O)cc(OC)c1O | 1.67 µM (inactive) | 1.84 µM (inactive) | 9.38 µM (inactive) | 4.5 µM (inactive) | 1.32 µM (inactive) | – | 3.75 µM (inactive) | 4.81 µM (inactive) | 1.91 µM (inactive) | 1.88 µM (inactive) | 3.12 µM (inactive) | 1.07 µM (active) | 2.05 µM (inactive) | 3.35 µM (inactive) | 2.61 µM (inactive) | 2.03 µM (inactive) | 1.81 µM (inactive) | 9.86 µM (inactive) | 1.72 µM (inactive) | 4.38 µM (inactive)
